Test results published in PubChem BioAssay AID858 (Vanderbilt High Throughput Screening Facility, 2007).
The source made the active and inactive calls.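 How the source made its calls: active means at least two of three replicate dose series yielding a converging curve fit, whether well or thinly supported; inactive means the rest.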

Target: D(1A) dopamine receptor (Homo sapiens) (UniProt P21728)
Experiment: D1 receptor modulation with EC30 dopamine, dose response, D1 allosteric modulator project, cell-based, CRE-luciferase, HEK293 (AID 858);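 further: HEK 293 cells bearing human D1 receptor stimulated by dopamine at its EC30; luciferase light from a cAMP response element reporter gene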

Chain of D(1A) dopamine receptor (Homo sapiens) (P21728 whole entry, looked up): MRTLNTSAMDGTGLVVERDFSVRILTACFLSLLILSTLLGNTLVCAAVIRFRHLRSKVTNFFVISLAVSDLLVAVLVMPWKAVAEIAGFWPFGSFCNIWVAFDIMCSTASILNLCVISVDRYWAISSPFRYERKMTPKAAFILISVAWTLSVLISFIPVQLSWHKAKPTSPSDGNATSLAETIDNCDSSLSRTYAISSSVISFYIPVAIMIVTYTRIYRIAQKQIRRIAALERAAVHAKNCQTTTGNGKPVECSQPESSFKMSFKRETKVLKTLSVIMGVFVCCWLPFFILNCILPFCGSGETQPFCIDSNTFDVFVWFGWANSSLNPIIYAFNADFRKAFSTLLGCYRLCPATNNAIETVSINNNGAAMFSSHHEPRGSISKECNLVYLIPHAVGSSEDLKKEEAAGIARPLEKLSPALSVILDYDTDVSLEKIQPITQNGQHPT

SMILES | outcome | EC50
O=C(CCSc1nc2ccccc2o1)N1CCOCC1 | inactive | 
Cc1ccc(Nc2nnc(SCc3cc(=O)n4ccsc4n3)s2)c(C)c1 | inactive | 
COc1ccccc1NC(=O)CC1Nc2ccccc2NC1=O (stereo not drawn) | inactive | 
O=C1CSc2ccccc2N1Cc1ccccc1F | inactive | 
CCc1nnc(NC(=O)CSc2ncc(-c3ccccc3)n2CC)s1 | inactive | 
COC(=O)c1c(-c2ccccc2)csc1NC(=O)c1ccco1 | inactive | 
COc1ccc(OC)c(/C=N/c2oc(-c3ccco3)c(-c3ccco3)c2C#N)c1 |  | 1970 nM
Cc1c(C(=O)OCC(C)C)[nH]c2c1C(=O)CC(c1ccco1)C2 (stereo not drawn) |  | 1570 nM
O=C(c1cccn2c(=O)c3cc(Cl)ccc3nc12)N1CCN(Cc2ccc3c(c2)OCO3)CC1 | inactive | 
CCOC(=O)c1c(C)c(C(=O)NCc2ccccc2OC)c(C)n1C | inactive | 
CCOC(=O)N1CCC(N2Cc3cccc(C(=O)NC(C)c4ccc5c(c4)OCCO5)c3C2=O)CC1 (stereo not drawn) | inactive | 
C/C(CCc1oc2ccccc2c1-c1ccc(C)o1)=N/O | inactive | 
COc1ccc2nc(SCC(=O)N3CCCCCC3)c(C#N)cc2c1 | inactive | 
c1ccc(-c2nc3ccccc3c3nncn23)cc1 | inactive | 
O=C1CC(c2ccsc2)c2cc3c(cc2N1)OCCO3 (stereo not drawn) | inactive | 
O=c1n(Cc2ccccc2)c2cc(Cl)cnc2n1Cc1ccccc1 | inactive | 
O=C1N(CN2CCN(c3cccc(Cl)c3)CC2)c2ccccc2C12OCCCO2 | inactive | 
Cc1cc(N2CCN(S(=O)(=O)c3ccc4c(c3)OCCO4)CC2)n2ncnc2n1 | inactive | 
NC(=O)CSc1nc2scc(-c3ccco3)c2c(=O)n1-c1ccccc1 |  | 1630 nM
COc1ccccc1CNC(=O)c1ccc(NS(=O)(=O)c2c(C)noc2C)cc1 | inactive | 
O=C(CCc1ccc(CCC(=O)c2cccs2)s1)c1cccs1 | inactive | 
COc1ccc(OC)c(C2C=C(c3ccc(C)c(C)c3)Nc3nnnn32)c1 (stereo not drawn) | inactive | 
CCC(=O)NC(=Nc1nc2ccccc2s1)NC(=O)CC | inactive | 

SMILES | outcome | EC50
Cc1sc2ncnc(SCC(=O)N3CCCC3)c2c1C | inactive | 
O=S(=O)(c1ccccc1)c1nc(-c2ccco2)oc1N1CCCCCC1 | inactive | 
O=CN1Cc2[nH]c3ccccc3c2N(c2ccc(Cl)cc2)C1=O | inactive | 
Cc1noc(C)c1S(=O)(=O)N1CCCC(C(=O)NCc2ccccn2)C1 (stereo not drawn) | inactive | 
O=C(OCC#CCSc1nnc(-c2ccc(Br)cc2)o1)c1ccco1 | inactive | 
CCC1(CC)C(=O)NC(=NCCc2c[nH]c3ccccc23)NC1=O | inactive | 
O=C1COc2ccc(C(=O)c3ccccc3)cc2CN1 | inactive | 
Cc1cc(=O)n(CC=C(Cl)Cl)c2ccccc12 | inactive | 
COc1ccc(CCN2CCCn3c2nc2c3c(=O)n(Cc3ccccc3F)c(=O)n2C)cc1OC | inactive | 
CS(=O)(=O)c1sc2nc(-c3cccs3)cc(-c3ccccc3)c2c1N | inactive | 
c1ccc(C2CC(c3ccccc3)n3ncnc3N2)cc1 (stereo not drawn) | inactive | 
N#Cc1nc(-c2ccc(F)cc2)oc1NCc1ccccc1 | inactive | 
CCCCCn1c(SCC(=O)OC)nc2c1c(=O)[nH]c(=O)n2C | inactive | 
Cc1[nH]n(-c2ccccc2)c(=O)c1S(=O)(=O)c1ccccc1 | inactive | 
O=C(CC1SC(=NC2CCCCC2)NC1=O)Nc1ccccc1 (stereo not drawn) | inactive | 
Cc1ccc(CCNS(=O)(=O)c2cnc[nH]2)cc1 | inactive | 
CCn1c2ccccc2c2nnc(SCCCn3c(=O)[nH]c4ccccc43)nc21 | inactive | 
Brc1ccc(-c2nn3c(Cc4ccccc4)nnc3s2)o1 | inactive | 
Cc1csc2c(C#N)c(=O)c3c(n12)CCC3 | inactive | 
C1CCC(c2nn3c(-c4n[nH]c5c4CCC5)nnc3s2)CC1 |  | 1140 nM
Cc1ccc(OCCN2C(=O)OC(C)(C)C2(C)O)cc1 (stereo not drawn) | inactive | 
C=CCn1c(=O)c2c(C)c(C)sc2n2c(Nc3ccc(OC)cc3)nnc12 | inactive | 
Cn1c(SCc2ccon2)nc2ccccc2c1=O | inactive | 

SMILES | outcome | EC50
CC(C)Cc1nc(N2CCN(C(=O)C(C)C)CC2)c(C#N)c2c1CCC2 | inactive | 
COC(=O)/C(=C1/Oc2cc3c(cc2S1)OCO3)C(F)(F)F | inactive | 
CCOc1ccc(C2Oc3nc(SC)nnc3-c3ccccc3N2C(C)=O)cc1OC (stereo not drawn) |  | 2380 nM
CCCCNC(=O)c1cc(-c2ccc(OC)c(OC)c2)on1 | inactive | 
Cc1sc2nc(C3CC3)nc(NCCNS(C)(=O)=O)c2c1C | inactive | 
CC1(C)Cc2c(C#N)c(NC3CCCCC3)nc(-c3ccco3)c2CO1 |  | 2600 nM
Cc1ccc(-n2c(SCC(=O)OC(C)C)nnc2-c2cnccn2)cc1 | inactive | 
COc1cccc(N2C(=O)C3ON(c4ccccc4)C(c4cccs4)C3C2=O)c1 (stereo not drawn) | inactive | 
CCn1c(=O)c2cc(S(=O)(=O)NC3CCCCC3)ccc2n(CC)c1=O | inactive | 
C=CCn1c2ccccc2c2nnc(SCC(=O)NC(C(=O)OC)C(C)C)nc21 (stereo not drawn) | inactive | 
Clc1cccc(Nc2c3c(nc4ncnn24)CCC3)c1 | inactive | 
CCOc1ncccc1C(=O)OCc1nnc(-c2ccccc2)o1 | inactive | 
O=S(=O)(Nc1cc(Cl)ccc1N1CCCCC1)c1cccs1 | inactive | 
COc1ccc(OC)c(C(=O)COC(=O)C2CC3CCCC(C2)C3=O)c1 (stereo not drawn) | inactive | 
CCOC(=O)C(C)Oc1cccc2c(=O)n(CC(=O)NCc3ccco3)ccc12 (stereo not drawn) | inactive | 
CN(C)c1oc(-c2ccccc2Cl)nc1C#N | inactive | 
Cc1nc2ccc(CCO)cc2s1 | inactive | 
c1ccc(Nc2nc3ccccc3n3cnnc23)cc1 | inactive | 
CCN(CCCNC(=O)CN(C)S(=O)(=O)c1cccc2nsnc12)c1cccc(C)c1 | inactive | 
CCOc1ccccc1NC(=O)CN(C)S(=O)(=O)c1cccc2nsnc12 | inactive | 
Cc1ccc(-n2cnnn2)c2cccnc12 | inactive | 
CCCc1nc(N2CCOCC2)c(C#N)c2c1CCCC2 | inactive | 
NC(=O)COc1ccc(NC(=O)OCc2ccccc2)cc1 | inactive | 

SMILES | outcome | EC50
CCC(=O)N1CCc2cc(S(=O)(=O)NCCC(=O)NC3CCCc4ccccc43)ccc21 (stereo not drawn) | inactive | 
O=C(c1ccco1)N1CCN(S(=O)(=O)c2ccc3c(c2)CCN3C(=O)C2CC2)CC1 | inactive | 
CC(C)Cn1c(-c2cccs2)nc2nc3ccccc3nc21 | inactive | 
CCOC(=O)c1c(-c2cccs2)csc1NC(=O)CSc1ncn[nH]1 | inactive | 
Cc1nc2sc3c(c2c(=O)[nH]1)CCC3 | inactive | 
Cn1c(Cn2c(=O)sc3ccccc32)nnc1SCC(=O)N1CCOCC1 | inactive | 
Cc1cc(C)nc(SCC(=O)N2CCCCC2)n1 | inactive | 
N#Cc1nc(-c2ccccc2Cl)oc1N1CCOCC1 | inactive | 
CCOC(=O)c1c(C)oc2c1c(C=NCc1ccccn1)c(O)c1ccccc12 | inactive | 
Cc1cccc(C2CC(c3ccc(F)cc3)Nc3nc(N)nn32)c1 (stereo not drawn) | inactive | 
COc1ccc(C(=O)Nc2nnc(Cc3cccs3)s2)cc1OC |  | 313 nM
C=CCSc1nc2ccccc2c(=O)[nH]1 | inactive | 
CCCCCn1c(N)c(C#N)c2nc3ccccc3nc21 | inactive | 
Cc1cc(NCCCn2ccnc2)n2c(nc3ccccc32)c1C#N | inactive | 
COc1ccc(-n2nc3ccccc3n2)cc1 | inactive | 
COc1ccc(-c2csc3nc(C)n(-n4cccc4)c(=O)c23)cc1OC | inactive | 
CCOC(=O)N1CCN(S(=O)(=O)c2ccc3c(c2)CCN3C(=O)C2CCC2)CC1 | inactive | 
CCc1nc(N2CCCCC2)c2oc3ccccc3c2n1 | inactive | 
CC(C)Oc1ccccc1C1CC(=O)Nc2cc3c(cc21)OCCO3 (stereo not drawn) | inactive | 
Cn1c(=O)c2c(nc(SCCCC#N)n2Cc2ccccc2F)n(C)c1=O | inactive | 
COC(=O)c1sc(=S)sc1C(=O)OC | inactive | 
COc1ccc(-c2noc(CCC(N)=O)n2)cc1OC | inactive | 
CC1(C)CN=C(Nc2nc3ccccc3s2)S1 | inactive | 

SMILES | outcome | EC50
COc1ccc(Cn2nnc3c(=O)[nH]c(C4CCCN(C(=O)c5ccccc5)C4)nc32)cc1 (stereo not drawn) | inactive | 
CCc1nc2ccccc2c(C(=O)OCC(=O)NCc2ccco2)c1C | inactive | 
Clc1ccccc1-c1nnc2sc(-c3ccc(Br)o3)nn12 | inactive | 
COC(=O)c1ccc(CSc2nc3c(cnn3-c3ccc(F)cc3)c(=O)[nH]2)o1 |  | 2490 nM
N#Cc1c2c(nc(N)c1-c1ccccc1)CCCCC2 | inactive | 
CCOC(=O)N1CCC(NC(=O)c2cccc3c2C(=O)N(Cc2cccnc2)C3)CC1 | inactive | 
N#Cc1c(N)nc(-c2ccccc2)nc1-c1ccccc1 |  | 1170 nM
C=CCNC(=O)C1CC(c2cccc(OC)c2)=NO1 (stereo not drawn) | inactive | 
CSc1ccc(C2C(C#N)=C(N)N(c3ccccc3)C3=C2C(=O)CCC3)cc1 (stereo not drawn) | inactive | 
CCOC(=O)c1nc(-c2ccccc2)oc1N(C)C | inactive | 
CSc1ccccc1NC(=O)c1onc(C)c1Cl | inactive | 
CCn1c(SCc2cccnc2)nc2c1c(=O)n(C)c(=O)n2C | inactive | 
CSc1oc(-c2ccco2)nc1S(=O)(=O)c1ccc(F)cc1 | inactive | 
CC(C)c1ccc(-c2nc(N3CCCCC3)[nH]c(=O)c2C#N)cc1 |  | 1750 nM
CCCCSc1nc2c(c(=O)n1CC)SC(C)C2 (stereo not drawn) | inactive | 
CCn1cc(C(=O)NCC2COc3ccccc3O2)c2cc(OC)c(OC)cc2c1=O (stereo not drawn) | inactive | 
Cc1cc(=O)oc2cc(OCC(=O)NCCc3nc4ccccc4[nH]3)ccc12 | inactive | 
CN1CCN(CC(O)COCc2ccc3c(c2)OCO3)CC1 (stereo not drawn) | inactive | 
CCn1nc(C(=O)NC2=NCCS2)c2ccccc2c1=O | inactive | 
COc1ncnc2c1N=C1CC(C)(C)CC(N)=C1S2 | inactive | 
Cc1ccc(Cn2c(-n3nc(C)cc3C)nc3c2c(=O)[nH]c(=O)n3C)cc1 | inactive | 
